In ChEMBL document CHEMBL5335783, “Inhibitory activity of catecholic phosphonic and phosphinic acids against Helicobacter pylori ureolysis” (Eur J Med Chem, 2023):
The source made the active and inactive calls. The calls are words filed in the database; no cut-off is given here.

Legend:
[1] = Cytotoxicity against mouse Balb/3T3-L1 cells assessed as reduction in cell proliferation at 100 uM incubated for 72 hrs by SRB assay relative to control; format: toxicity, cell-based; conditions: read-out: Activity
[2] = Cytotoxicity against mouse Balb/3T3-L1 cells assessed as reduction in cell proliferation at 31.4 uM incubated for 72 hrs by SRB assay relative to control; format: toxicity, cell-based; conditions: read-out: Activity
[3] = Cytotoxicity against mouse Balb/3T3-L1 cells assessed as reduction in cell proliferation at 10 uM incubated for 72 hrs by SRB assay relative to control; format: toxicity, cell-based; conditions: read-out: Activity
[4] = Cytotoxicity against mouse Balb/3T3-L1 cells assessed as reduction in cell proliferation at 3.14 uM incubated for 72 hrs by SRB assay relative to control; format: toxicity, cell-based; set-up: scale not given: the % may be the effect or the level left; conditions: balb/3t3-l1, 72 h
[5] = Cytotoxicity against mouse Balb/3T3-L1 cells assessed as reduction in cell proliferation at 1 uM incubated for 72 hrs by SRB assay relative to control; format: toxicity, cell-based; conditions: read-out: Activity
[6] = Cytotoxicity against mouse Balb/3T3-L1 cells assessed as reduction in cell proliferation at 0.31 uM incubated for 72 hrs by SRB assay relative to control; format: toxicity, cell-based; conditions: read-out: Activity
[7] = Cytotoxicity against mouse Balb/3T3-L1 cells assessed as reduction in cell proliferation at 0.1 uM incubated for 72 hrs by SRB assay relative to control; format: toxicity, cell-based; set-up: scale not given: the % may be the effect or the level left; conditions: balb/3t3-l1, 72 h
[8] = Cytotoxicity against HEK293 cells assessed as reduction in cell proliferation at 100 uM incubated for 72 hrs by SRB assay relative to control; format: toxicity, cell-based; conditions: human, read-out: Activity
[9] = Cytotoxicity against HEK293 cells assessed as reduction in cell proliferation at 31.4 uM incubated for 72 hrs by SRB assay relative to control; format: toxicity, cell-based; conditions: human, read-out: Activity
HEK293 [10] = experiment: Cytotoxicity against HEK293 cells assessed as reduction in cell proliferation at 10 uM incubated for 72 hrs by SRB assay relative to control; format: toxicity, cell-based; set-up: scale not given: the % may be the effect or the level left; conditions: human, hek293, 72 h
[11] = Cytotoxicity against HEK293 cells assessed as reduction in cell proliferation at 3.14 uM incubated for 72 hrs by SRB assay relative to control; format: toxicity, cell-based; conditions: human, read-out: Activity
[12] = Cytotoxicity against HEK293 cells assessed as reduction in cell proliferation at 1 uM incubated for 72 hrs by SRB assay relative to control; format: toxicity, cell-based; conditions: human, read-out: Activity
HEK293 [13] = experiment: Cytotoxicity against HEK293 cells assessed as reduction in cell proliferation at 0.31 uM incubated for 72 hrs by SRB assay relative to control; format: toxicity, cell-based; set-up: scale not given: the % may be the effect or the level left; conditions: human, hek293, 72 h
[14] = Cytotoxicity against HEK293 cells assessed as reduction in cell proliferation at 0.1 uM incubated for 72 hrs by SRB assay relative to control; format: toxicity, cell-based; conditions: human, read-out: Activity
[15] = Inhibition of Sporosarcina pasteurii CCM 2056 native urease using urea as substrate measured for 1.5 hrs by colorimetric method
[16] = Inhibition of Sporosarcina pasteurii CCM 2056 native urease using urea as substrate preincubated for 1 hr followed by substrate addition and measured for 1.5 hrs by colorimetric method
[17] = Inhibition of -ureolysis in live Helicobacter pylori Tx30a (ATCC 51932) in presence of urea by absorbance based analysis; format: functional
Sporosarcina pasteurii [18] = experiment: Inhibition of Sporosarcina pasteurii CCM 2056 native urease using urea as substrate by colorimetric method; conditions: TDE = time-dependent effect
Sporosarcina pasteurii [19] = experiment: Inhibition of Sporosarcina pasteurii CCM 2056 native urease using urea as substrate in presence of DTT measured for 1.5 hrs by colorimetric method
Sporosarcina pasteurii [20] = experiment: Competitive inhibition of Sporosarcina pasteurii CCM 2056 native urease using urea as substrate in presence of DTT measured for 1.5 hrs by colorimetric method
[21] = Stability of compound in methanol assessed as rate of hydrolysis measured after 3 days by NMR analysis; format: physicochemical; conditions: time 3 day, read-out: Activity

Ki [15]	Ki [16]	IC50 [17]	inhibition (Sporosarcina pasteurii [19])	SMILES	inhibition at 72 h, 100 µM [1]	inhibition at 72 h, 31.4 µM [2]	inhibition at 72 h, 10 µM [3]	Activity [4]	inhibition at 72 h, 1 µM [5]	inhibition at 72 h, 0.31 µM [6]	Activity [7]	inhibition at 72 h, 100 µM [8]	inhibition at 72 h, 31.4 µM [9]	Activity (HEK293 [10])	inhibition at 72 h, 3.14 µM [11]	inhibition at 72 h, 1 µM [12]	Activity (HEK293 [13])	inhibition at 72 h, 0.1 µM [14]	other results
400 µM	2.36 µM	0.75 µM	inactive	O=C(O)C(CP(=O)(O)O)c1ccc(O)c(O)c1 (racemic)	34.9%	24.9%	22.1%	20.1%	18.6%	15.6%	6.7%	7.8%	-3%	-3%	-0.2%	-0.8%	-1.6%	1.4%	inhibition (Sporosarcina pasteurii [18]): Tde
298 µM	6.13 µM	9.28 µM	inactive	O=C(O)CCP(=O)(O)CC(C(=O)O)c1ccc(O)c(O)c1 (racemic)	33.2%	25.8%	17.4%	17.5%	13.4%	4.9%	8%	7.7%	10.4%	16.3%	10.1%	8.1%	8.5%	13.5%	
41.9 µM	34.8 µM	50.3 µM	Active	O=C(O)C(CP(=O)(O)O)c1cc(O)c(O)cc1Br (racemic)															inhibition (Sporosarcina pasteurii [20]): Active
107 µM	78 µM	31.4 µM	Active	COC(=O)C(CP(=O)(O)O)c1ccc(O)c(O)c1 (racemic)															degraded at 72 h [21]: < 5%
295 µM	228 µM	412 µM	Active	COC(=O)CCP(=O)(O)CC(C(=O)OC)c1ccc(O)c(O)c1 (stereo not given)															degraded at 72 h [21]: < 5%
	3.3 µM	156 µM		CC(=O)NO [ACETOHYDROXAMIC ACID]															

SMILES	Ki [15]	Ki [16]	IC50 [17]	inhibition (Sporosarcina pasteurii [19])	inhibition at 72 h, 100 µM [1]	inhibition at 72 h, 31.4 µM [2]	inhibition at 72 h, 10 µM [3]	Activity [4]	inhibition at 72 h, 1 µM [5]	inhibition at 72 h, 0.31 µM [6]	Activity [7]	inhibition at 72 h, 100 µM [8]	inhibition at 72 h, 31.4 µM [9]	Activity (HEK293 [10])	inhibition at 72 h, 3.14 µM [11]	inhibition at 72 h, 1 µM [12]	Activity (HEK293 [13])	inhibition at 72 h, 0.1 µM [14]	other results
O=C(O)C(C[PH](=O)O)c1ccc(O)c(O)c1 (racemic)	79.3 µM	58.8 µM	10.5 µM	inactive															inhibition (Sporosarcina pasteurii [18]): Tde
O=P(O)(O)CCc1ccc(O)c(O)c1	17.7 µM	9.1 µM	26.6 µM	Active	17.8%	18.3%	12.7%	10.6%	15%	5.9%	0.4%	15.7%	15.6%	8.4%	0.1%	-0.9%	-3.4%	2.2%	
O=C(O)C(CP(=O)(O)CC(C(=O)O)c1ccc(O)c(O)c1)c1ccc(O)c(O)c1 (mixture of isomers)	16 µM	6.8 µM	13.1 µM	inactive															
COC(=O)C(CP(=O)(O)CC(C(=O)OC)c1ccc(O)c(O)c1)c1ccc(O)c(O)c1 (mixture of isomers)	223 µM	7.55 µM	106 µM	inactive															
